Results reported in US9120779B2, “Inhibitors of HCV NS5A” (PRESIDIO PHARMACEUTICALS, INC., priority 2008, dated 2015).

System: HCV genotype 1b replicon in Huh 7 cells
Experiment: HCV replicon assay (luciferase readout, 1b_Huh-Luc/Neo-ET cell line)
Format: cell-based
Conditions: Hepatitis C virus, Huh-7, 72 h, read-out: Inhibition of HCV genotype 1b, Table 3, 72 h incubation
Protocol: Biological activity of the compounds of the invention was determined using an HCV replicon assay. The 1b_Huh-Luc/Neo-ET cell line persistently expressing a bicistronic genotype 1b replicon in Huh 7 cells was obtained from R^eBLikon GMBH. This cell line was used to test compound inhibition using luciferase enzyme activity readout as a measurement of compound inhibition of replicon levels.
On Day 1 (the day after plating), each compound is added in triplicate to the cells. Plates incubated for 72 h prior to running the luciferase assay. Enzyme activity was measured using a Bright-Glo Kit (cat. number E2620) manufactured by Promega Corporation. The following equation was used to generate a percent control value for each compound. % Control=(Average Compound Value/Average Control)*100
The EC50 value was determined using GraphPad Prism and the following equation: Y=Bottom+(Top−Bottom)/(1+10^((Log IC50−X)*HillSlope))
EC50 values of compounds are repeated several times in the replicon assay.
Example compounds of the disclosed invention are illustrated in Tables 1-9 attached as appendices. The tables show inhibitory activity of many of the example compounds with respect to HCV 1b. […] The tables further provide mass spectrometry results for the synthesized example compounds.

SMILES | EC50 [nM]
CC(C)(C)OC(=O)N[C@@H](C(=O)N1CCC[C@H]1c1ncc(-c2cc(F)c(N3CCC(c4cnc([C@@H]5CCCCN5C(=O)[C@H](NC(=O)OC(C)(C)C)c5ccccc5)[nH]4)CC3)c(F)c2)[nH]1)c1ccccc1 [compound 483] | < 1
O=C(N[C@@H](C(=O)N1CCC[C@H]1c1ncc(-c2cc(F)c(N3CCC(c4cnc([C@@H]5CCCCN5C(=O)[C@H](NC(=O)C5CC5)c5ccccc5)[nH]4)CC3)c(F)c2)[nH]1)c1ccccc1)C1CC1 [compound 484] | < 1
O=C(N[C@@H](C(=O)N1CCC[C@H]1c1ncc(-c2cc(F)c(N3CCC(c4cnc([C@@H]5CCCN5C(=O)[C@H](NC(=O)C5CC5)c5ccccc5)[nH]4)CC3)c(F)c2)[nH]1)c1ccccc1)C1CC1 [compound 485] | < 1
COC(=O)N[C@@H](C(=O)N1CCC[C@H]1c1ncc(-c2cc(F)c(N3CCC(c4cnc([C@@H]5CCCCN5C(=O)[C@H](NC(=O)C5CC5)c5ccccc5)[nH]4)CC3)c(F)c2)[nH]1)c1ccccc1 [compound 486] | < 1
COC(=O)N[C@@H](C(=O)N1CCC[C@H]1c1ncc(-c2cc(F)c(N3CCC(c4cnc([C@@H]5CCCCN5C(=O)[C@H](NC(=O)OC)c5ccccc5)[nH]4)CC3)c(F)c2)[nH]1)c1ccccc1 [compound 487] | < 1
COC(=O)N[C@@H](C(=O)N1CCC[C@H]1c1ncc(-c2cc(F)c(N3CCC(c4cnc([C@@H]5CCCN5C(=O)[C@H](NC(=O)N5CCCCC5)c5ccccc5)[nH]4)CC3)c(F)c2)[nH]1)c1ccccc1 [compound 488] | < 1
COC(=O)N[C@@H](C(=O)N1CCC[C@H]1c1ncc(-c2cc(F)c(N3CCC(c4cnc([C@@H]5COCCN5C(=O)[C@H](NC(=O)OC(C)(C)C)c5ccccc5)[nH]4)CC3)c(F)c2)[nH]1)c1ccccc1 [compound 489] | < 1
COC(=O)N[C@H](C(=O)N1CCC[C@H]1c1ncc(C2CCN(c3c(F)cc(-c4cnc([C@@H]5CCCN5C(=O)[C@H](NC(=O)OC)c5ccccc5)[nH]4)cc3F)CC2)[nH]1)C(C)C [compound 490] | < 1
COC(=O)N[C@@H](C(=O)N1CCCC[C@H]1c1ncc(C2CCN(c3c(F)cc(-c4cnc([C@@H]5CCCN5C(=O)[C@@H](c5ccccc5)N5CCCCC5)[nH]4)cc3F)CC2)[nH]1)c1ccccc1 [compound 491] | < 1
COC(=O)N[C@@H](C(=O)N1CCC[C@H]1c1ncc(-c2cc(F)c(N3CCC(c4cnc([C@@H]5COCCN5C(=O)[C@H](NC(=O)OC)c5ccccc5)[nH]4)CC3)c(F)c2)[nH]1)c1ccccc1 [compound 492] | < 1
COC(=O)N[C@@H](C(=O)N1CCCC[C@H]1c1ncc(C2CCN(c3c(F)cc(-c4cnc([C@@H]5CCCN5C(=O)[C@H](NC(=O)C5CC5)c5ccccc5)[nH]4)cc3F)CC2)[nH]1)c1ccccc1 [compound 493] | < 1
COC(=O)N[C@@H](C(=O)N1CCC[C@H]1c1ncc(-c2cc(F)c(N3CCC(c4cnc([C@@H]5COCCN5C(=O)[C@H](NC(=O)C5CC5)c5ccccc5)[nH]4)CC3)c(F)c2)[nH]1)c1ccccc1 [compound 494] | < 1
O=C(N[C@@H](C(=O)N1CCC[C@H]1c1ncc(-c2cc(F)c(N3CCC(c4cnc([C@@H]5COCCN5C(=O)[C@@H](c5ccccc5)N5CCCCC5)[nH]4)CC3)c(F)c2)[nH]1)c1ccccc1)C1CC1 [compound 495] | < 1
COC(=O)N[C@@H](C(=O)N1CCC[C@H]1c1ncc(-c2cc(F)c(N3CCC(c4cnc([C@@H]5CCCCN5C(=O)[C@@H](c5ccccc5)N5CCCCC5)[nH]4)CC3)c(F)c2)[nH]1)c1ccccc1 [compound 496] | < 1
COC(=O)N[C@@H](C(=O)N1CCOC[C@H]1c1ncc(C2CCN(c3c(F)cc(-c4cnc([C@@H]5CCCN5C(=O)[C@H](NC(=O)OC(C)(C)C)c5ccccc5)[nH]4)cc3F)CC2)[nH]1)c1ccccc1 [compound 497] | < 1
COC(=O)N[C@@H](C(=O)N1CCC[C@H]1c1ncc(-c2cc(F)c(N3CCC(c4cnc([C@@H]5CCCN5C(=O)[C@H](NC(=O)OC)C(C)C)[nH]4)CC3)c(F)c2)[nH]1)C(C)C [compound 498] | 1 to 9.9
COC(=O)N[C@H](C(=O)N1CCC[C@H]1c1ncc(-c2cc(F)c(N3CCC(c4cnc([C@@H]5CCCN5C(=O)[C@@H](NC(=O)OC)C(C)C)[nH]4)CC3)c(F)c2)[nH]1)C(C)C [compound 499] | < 1
COC(=O)N[C@H](C(=O)N1CCCC[C@H]1c1ncc(C2CCN(c3c(F)cc(-c4cnc([C@@H]5CCCN5C(=O)[C@H](NC(=O)OC)c5ccccc5)[nH]4)cc3F)CC2)[nH]1)C(C)C [compound 500] | < 1
COC(=O)N[C@@H](C(=O)N1CCC[C@H]1c1ncc(-c2cc(F)c(N3CCC(c4cnc([C@@H]5CCCCN5C(=O)[C@H](NC(=O)OC)C(C)C)[nH]4)CC3)c(F)c2)[nH]1)c1ccccc1 [compound 501] | < 1
COC(=O)N[C@@H](C(=O)N1CCOC[C@H]1c1ncc(C2CCN(c3c(F)cc(-c4cnc([C@@H]5CCCN5C(=O)[C@H](NC(=O)C5CC5)c5ccccc5)[nH]4)cc3F)CC2)[nH]1)c1ccccc1 [compound 502] | < 1
COC(=O)N[C@H](C(=O)N1CCC[C@H]1c1ncc(-c2cc(F)c(N3CCC(c4cnc([C@@H]5CCCCN5C(=O)[C@@H](NC(=O)OC)C(C)C)[nH]4)CC3)c(F)c2)[nH]1)C(C)C [compound 503] | < 1
COC(=O)N[C@@H](C(=O)N1CCC[C@H]1c1ncc(-c2cc(F)c(N3CCC(c4cnc([C@@H]5CCCCN5C(=O)[C@H](NC(=O)OC)C(C)C)[nH]4)CC3)c(F)c2)[nH]1)C(C)C [compound 504] | > 1000
COC(=O)N[C@H](C(=O)N(C)[C@@H](C)c1ncc(C2CCN(c3c(F)cc(-c4cnc([C@@H]5CCCN5C(=O)[C@@H](NC(=O)OC)C(C)C)[nH]4)cc3F)CC2)[nH]1)C(C)C [compound 505] | < 1
COC(=O)N[C@@H](C(=O)N(C)[C@@H](C)c1ncc(C2CCN(c3c(F)cc(-c4cnc([C@@H]5CCCN5C(=O)[C@H](NC(=O)OC)c5ccccc5)[nH]4)cc3F)CC2)[nH]1)c1ccccc1 [compound 506] | < 1
COC(=O)N[C@@H](C(=O)N1CCOC[C@H]1c1ncc(-c2cc(F)c(N3CCC(c4cnc([C@@H]5CCCN5C(=O)[C@H](NC(=O)OC)c5ccccc5)[nH]4)CC3)c(F)c2)[nH]1)c1ccccc1 [compound 507] | < 1
CC(C)(C)OC(=O)N[C@@H](C(=O)N1CCOC[C@H]1c1ncc(-c2cc(F)c(N3CCC(c4cnc([C@@H]5CCCN5C(=O)[C@H](NC(=O)OC(C)(C)C)c5ccccc5)[nH]4)CC3)c(F)c2)[nH]1)c1ccccc1 [compound 508] | < 1
COC(=O)N[C@H](C(=O)N1CCOC[C@H]1c1ncc(-c2cc(F)c(N3CCC(c4cnc([C@@H]5CCCN5C(=O)[C@@H](NC(=O)OC)C(C)C)[nH]4)CC3)c(F)c2)[nH]1)C(C)C [compound 509] | < 1
O=C(N[C@@H](C(=O)N1CCOC[C@H]1c1ncc(-c2cc(F)c(N3CCC(c4cnc([C@@H]5CCCN5C(=O)[C@H](NC(=O)C5CC5)c5ccccc5)[nH]4)CC3)c(F)c2)[nH]1)c1ccccc1)C1CC1 [compound 510] | < 1
C[C@@H](c1ncc(C2CCN(c3c(F)cc(-c4cnc([C@@H]5CCCN5C(=O)[C@H](NC(=O)C5CC5)c5ccccc5)[nH]4)cc3F)CC2)[nH]1)N(C)C(=O)[C@H](NC(=O)C1CC1)c1ccccc1 [compound 511] | < 1
COC(=O)N[C@H](C(=O)N[C@@H](C)c1ncc(C2CCN(c3c(F)cc(-c4cnc([C@@H]5CCCN5C(=O)[C@@H](NC(=O)OC)C(C)C)[nH]4)cc3F)CC2)[nH]1)C(C)C [compound 512] | < 1
